Patent US20060116390A1, “Hepatitis c virus inhibitors” (priority 2003, published 2006)
Where two headings read alike, the source gives them in different places.

Test system: HCV proteins in Rep5.1 cells (replicon cell line)
Assay: Inhibitory activity of HCV: cell-based ELISA in replicon cell line Rep5.1 (decrease of HCV proteins)
Parameters: species or system hepatitis C virus
Conditions: Rep5.1 cells, 72 hours with drug
Procedure, shortened: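 HCV protein loss was quantified by ELISA on methanol/acetone-fixed cells 72 h after drug addition, probing with selected HCV-positive human plasma, and IC50 was defined as 50% reduction relative to untreated wells. The cells were Rep5.1 replicon cells cultured in DMEM-10 with 500 μg/ml G418, plated at 5000 per well and dosed with serial dilutions after 4 h attachment.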

[1] = Hepatitis C virus, 72 h, concentration at which 50% of HCV proteins was decreased, Table 2, read-out: IC50
[2] = Hepatitis C virus, 72 h, decrease of HCV proteins measured by HCV antibody, Table 1, read-out: Level (IC50 values classified)
[3] = concentration at which 50% of HCV proteins was decreased, Table 2, read-out: IC50

| SMILES | IC50 [1] | IC50 [2] | IC50 [3] |
| --- | --- | --- | --- |
| CC1=C(C(=O)OCc2c(C)cc(C)cc2C)CNC(=S)N1 [Compound 142, 6-methyl-2-thioxo-1,2,3,4-tetrahydro-pyrimidine-5-carboxylic acid 2,4,6-trimethyl-benzyl ester] | 6000 nM | 1000 to 10000 nM |  |
| CC1=C(C(=O)OCc2noc(C)n2)CNC(=S)N1 [30′, 6-methyl-2-thioxo-1,2,3,4-tetrahydro-pyrimidine-5-carboxylic acid 5-methyl-[1,2,4]oxadiazol-3-ylmethyl ester] | > 100000 nM | > 20000 nM |  |
| CC1=C(C(=O)OCCCc2cccs2)CNC(=S)N1 [9′, 6-methyl-2-thioxo-1,2,3,4-tetrahydro-pyrimidine-5-carboxylic acid 3-thiophen-2-yl-propyl ester] | < 400 nM | < 1000 nM |  |
| CC1=C(C(=O)OCC#Cc2ccccc2)CNC(=S)N1 [Compound 192, 6-methyl-2-thioxo-1,2,3,4-tetrahydro-pyrimidine-5-carboxylic acid 3-phenyl-prop-2-inyl ester] |  |  | < 400 nM |
| CC1=C(C(=O)OCc2ccc(-c3cccs3)s2)CNC(=S)N1 [Compound 218, 6-methyl-2-thioxo-1,2,3,4-tetrahydro-pyrimidine-5-carboxylic acid[2,2′]bithiophenyl-5-ylmethyl ester] |  |  | < 400 nM |
| CC1=C(C(=O)OCC2CCCCC2)CNC(=S)N1 [Compound 29, 6-methyl-2-thioxo-1,2,3,4-tetrahydro-pyrimidine-5-carboxylic acid cyclohexylmethyl ester] | 300 nM | < 1000 nM |  |
| CC1=C(C(=O)OCC(Br)=CBr)CNC(=S)N1 [Compound 193, 6-methyl-2-thioxo-1,2,3,4-tetrahydro-pyrimidine-5-carboxylic acid 2,3-dibromo-allyl ester] | 1000 nM | < 1000 nM |  |
| CCCCc1ccc(COC(=O)C2=C(C)NC(=S)NC2)cc1 [Compound 51, 6-methyl-2-thioxo-1,2,3,4-tetrahydro-pyrimidine-5-carboxylic acid 4-butyl-benzyl ester] | < 500 nM | < 1000 nM |  |
| CC1=C(C(=O)OCCc2csc([N+](=O)[O-])c2)CNC(=S)N1 [26′, 6-methyl-2-thioxo-1,2,3,4-tetrahydro-pyrimidine-5-carboxylic acid 2-(5-nitro-thiophen-3-yl)-ethyl ester] | 900 nM | < 1000 nM |  |
| CC1=C(C(=O)OCc2ccc(OCC(C)C)cc2)CNC(=S)N1 [Compound 72, 6-methyl-2-thioxo-1,2,3,4-tetrahydro-pyrimidine-5-carboxylic acid 4-isobutoxy-benzyl ester] | < 500 nM | < 1000 nM |  |
| CC1=C(C(=O)OCc2cc(F)c(F)c(F)c2)C(CF)NC(=S)N1 (stereo not shown) [91′, 4-fluoromethyl-6-methyl-2-thioxo-1,2,3,4-tetrahydro-pyrimidine-5-carboxylic acid 3,4,5-trifluoro-benzyl ester] | 1600 nM | 1000 to 10000 nM |  |
| CC1=C(C(=O)SCCc2ccccc2)C(CO)NC(=S)N1 (stereo not shown) [62″, 4-hydroxymethyl-6-methyl-2-thioxo-1,2,3,4-tetrahydro-pyrimidine-5-carbothioic acid S-phenethyl ester] | > 100000 nM | > 20000 nM |  |
| CC1=C(C(=O)OCC2(c3ccc(Cl)cc3Cl)CC2)C(CO)NC(=S)N1 (stereo not shown) [61″, 4-hydroxymethyl-6-methyl-2-thioxo-1,2,3,4-tetrahydro-pyrimidine-5-carboxylic acid 1-(2,4-dichloro-phenyl)-cyclopropylmethyl ester] | 16000 nM | 10000 to 20000 nM |  |
| COc1ccc(Br)cc1COC(=O)C1=C(C)NC(=S)NC1 [Compound 185, 6-methyl-2-thioxo-1,2,3,4-tetrahydro-pyrimidine-5-carboxylic acid 5-bromo-2-methoxy-benzyl ester] | 400 nM | < 1000 nM |  |
| CC1=C(C(=O)SCc2ccccc2)CNC(=S)N1 [Compound 85, 6-methyl-2-thioxo-1,2,3,4-tetrahydro-pyrimidine-5-carbothioic acid S-benzyl ester] | 100 nM | < 1000 nM |  |
| COc1ccc(COC(=O)C2=C(C)NC(=S)NC2)c(C)c1C [Compound 138, 6-methyl-2-thioxo-1,2,3,4-tetrahydro-pyrimidine-5-carboxylic acid 4-methoxy-2,3-dimethyl-benzyl ester] | 20000 nM | 10000 to 20000 nM |  |
| CC1=C(C(=O)OCc2cccs2)CNC(=S)N1 [Compound 153, 6-methyl-2-thioxo-1,2,3,4-tetrahydro-pyrimidine-5-carboxylic acid thiophen-2-ylmethyl ester] | 2700 nM | 1000 to 10000 nM |  |
| CCCOc1ccc(COC(=O)C2=C(C)NC(=S)NC2)cc1 [Compound 78, 6-methyl-2-thioxo-1,2,3,4-tetrahydro-pyrimidine-5-carboxylic acid 4-propoxy-benzyl ester] | 1000 nM | < 1000 nM |  |
| COc1cccc(COC(=O)C2=C(C)NC(=S)NC2)c1 [Compound 120, 6-methyl-2-thioxo-1,2,3,4-tetrahydro-pyrimidine-5-carboxylic acid 3-methoxy-benzyl ester] | 1000 nM | 1000 to 10000 nM |  |
| CCOc1cc(COC(=O)C2=C(C)NC(=S)NC2)cc(OCC)c1 [Compound 150, 6-methyl-2-thioxo-1,2,3,4-tetrahydro-pyrimidine-5-carboxylic acid 3,5-diethoxy-benzyl ester] | 1000 nM | < 1000 nM |  |
| C=C(Cl)COC(=O)C1=C(C)NC(=S)NC1 [Compound 98, 6-methyl-2-thioxo-1,2,3,4-tetrahydro-pyrimidine-5-carboxylic acid 2-chloro-allyl ester] | 7000 nM | 1000 to 10000 nM |  |
| CC1=C(C(=O)OCc2cc(Cl)cc(Cl)c2)CNC(=S)N1 [Compound 131, 6-methyl-2-thioxo-1,2,3,4-tetrahydro-pyrimidine-5-carboxylic acid 3,5-dichloro-benzyl ester] | < 400 nM | < 1000 nM |  |
| CC1=C(C(=O)OCc2cc3c(C)snc3s2)CNC(=S)N1 [Compound 213, 6-methyl-2-thioxo-1,2,3,4-tetrahydro-pyrimidine-5-carboxylic acid 3-methyl-thieno[2,3-c]isothiazol-5-ylmethyl ester] | 4000 nM | 1000 to 10000 nM |  |
| CC(=O)OCC1NC(=S)NC(C)=C1C(=O)OCCCc1ccsc1 (stereo not shown) [22″, 4-acetoxymethyl-6-methyl-2-thioxo-1,2,3,4-tetrahydro-pyrimidine-5-carboxylic acid 3-thiophen-3-yl-propyl ester] | 43000 nM | > 20000 nM |  |
| CC1=C(C(=O)OCc2cc3ccccc3s2)CNC(=S)N1 [Compound 219, 6-methyl-2-thioxo-1,2,3,4-tetrahydro-pyrimidine-5-carboxylic acid benzo[b]thiophen-2-ylmethyl ester] | < 400 nM | < 1000 nM |  |
| CC1=C(C(=O)OCc2ccc(-c3cc(C(F)(F)F)n(C)n3)s2)CNC(=S)N1 [Compound 222, 6-methyl-2-thioxo-1,2,3,4-tetrahydro-pyrimidine-5-carboxylic acid 5-(1-methyl-5-trifluoromethyl-1H-pyrazol-3-yl)-thiophen-2-ylmethyl ester] | < 400 nM | < 1000 nM |  |
| O=C(OCc1ccccc1)C1=C(Cc2ccccc2)NC(=S)NC1 [Compound 18, 6-benzyl-2-thioxo-1,2,3,4-tetrahydro-pyrimidine-5-carboxylic acid benzyl ester] | 5000 nM | 1000 to 10000 nM |  |
